For 13 compounds, GI50 results are on record in ChEMBL document CHEMBL1132128, “Novel halogenated sulfonamides inhibit the growth of multidrug resistant MCF-7/ADR cancer cells” (1999).

By GI50 is commonly meant the concentration giving 50% growth inhibition. Higher therefore signals less potent growth inhibition.

Some results are limits rather than exact numbers.

Format in all cases: functional
The test system of assay [1] is HeLa. Kind of assay: Cytotoxic activity against human cervical adenocarcinoma-derived HeLa cell lines.
Assay [2] has as its system MCF7. The assay can be described thus: Cytotoxic activity against human breast tumor-derived MCF-7 cell lines.
Assay [3] deals with NCI/ADR-RES. Kind of assay: Cytotoxic activity against MCF-7/ADR cell lines. The note with it: Homo sapiens.

`COc1ccc(NS(=O)(=O)c2c(F)c(F)cc(F)c2F)cc1`: the GI50 in assay [1], in assay [2] and in assay [3] was over 50000 nM each time.

`COc1ccc(NS(=O)(=O)c2ccc(F)c(F)c2F)cc1`: the GI50 in assay [1], in assay [2] and in assay [3] was over 50000 nM throughout.

Regarding `COc1ccc(NS(=O)(=O)c2c(F)c(F)c(Br)c(F)c2F)cc1`, the figures for the GI50 in assay [1], in assay [2] and in assay [3] were 17000 nM, 36000 nM and 21000 nM, respectively.

Take `COc1ccc(NS(=O)(=O)c2c(F)c(F)c(F)c(Br)c2F)cc1`: the values for the GI50 in assay [1], in assay [2] and in assay [3] were 220 nM, 270 nM and 190 nM, respectively.

In the case of `COc1ccc(NS(=O)(=O)c2c(F)cc(F)cc2F)cc1`, the GI50 in assay [1], in assay [2] and in assay [3] was over 50000 nM in each case.

On to `COc1ccc(NS(=O)(=O)c2cc(F)c(F)c(F)c2F)cc1`, for which the GI50 amounted to 370 nM in assay [1], 120 nM in assay [2] and 400 nM in assay [3].

Turning to `COc1ccc(NS(=O)(=O)c2c(F)cc(F)c(F)c2F)cc1`, the GI50 came to 5800 nM in assay [1], 4500 nM in assay [2] and 4500 nM in assay [3].

For the compound `COc1ccc(NS(=O)(=O)c2cc(F)c(F)c(F)c2)cc1`, the results for the 50% growth inhibitory concentration (GI50) in assay [1], in assay [2] and in assay [3] were 3900 nM, 2000 nM and 3400 nM, respectively.

Regarding `COc1ccc(NS(=O)(=O)c2c(F)c(F)c(F)c(F)c2Br)cc1`, the results for the GI50 in assay [1], in assay [2] and in assay [3] were 160 nM, 39 nM and 160 nM, respectively.

With `COc1ccc(NS(=O)(=O)c2cc(F)c(Cl)c(F)c2F)cc1`, the GI50 in assay [1] worked out at 21000 nM; in assay [2], 44000 nM; in assay [3] it was 22000 nM.

Regarding `COc1ccc(NS(=O)(=O)c2c(F)c(F)c(F)c(F)c2F)cc1`, the GI50 in assay [1] was 99 nM; in assay [2], 29 nM; in assay [3] it was 58 nM.

In the case of `COc1ccc(NS(=O)(=O)c2c(F)c(Cl)c(F)c(Cl)c2F)cc1`, the GI50 in assay [1] worked out at 96 nM; in assay [2] it was 37 nM; in assay [3] it was 58 nM.

Consider `CC(=O)O[C@H]1C(=O)[C@@]2(C)[C@H]([C@H](OC(=O)c3ccccc3)[C@]3(O)C[C@H](OC(=O)[C@H](O)[C@@H](NC(=O)c4ccccc4)c4ccccc4)C(C)=C1C3(C)C)[C@]1(OC(C)=O)CO[C@@H]1C[C@@H]2O` [PACLITAXEL], for which the concentration for 50% growth inhibition (GI50) in assay [1] is 7 nM; in assay [2], 1.1 nM; in assay [3], over 50000 nM.
